Results as given in publication PMC8956739, “A synthetic lipopeptide targeting top-priority multidrug-resistant Gram-negative pathogens” (Nature Communications, 2022).
Values joined by “and” are separate entries in the source; they are usually repeats but may differ in a detail not shown here. Identical values can stand only once. Residues, ends and D or L forms follow the SMILES beside them.

Legend:
A. baumannii AB5075 [1] = assay: In vitro passaging, emergence of resistance; type: cell-based, Acinetobacter baumannii; settings: for OD600: 8 ug/mL
Procedure: Log-phase cultures (OD600 = 0.5, ~10^8 CFU/mL) of A. baumannii AB5075 were inoculated (1:10, v/v) in 200 μL fresh CaMHB (cation-adjusted Mueller–Hinton broth) containing 2, 8 and 16 μg/mL polymyxin B, colistin, F287, and F365 in a 96-well microplate with 4 biological replicates. The cultures were incubated at 37 °C for 12 h before the next dilution (1:10, v/v) with fresh CaMHB. Successive subculturing was conducted for 7 days.

in vitro = type: cell-based, human; settings: human, wild-type HK-2 cells (kidney proximal tubular), Cell viability, WT
Procedure: Fig. 6 Transcriptomic changes in human kidney proximal tubular HK-2 cells following treatments with polymyxin B (PMB), colistin (COL), F287, F319, and F365. a Numbers of differentially expressed genes. Distinctive intersections are color-coded. b Cell viability difference (two-tailed Student’s t-test, n = 4 biologically independent cells, Benjamini–Hochberg adjusted P-values) between wild-type HK-2 and KCNJ16 knockout (KO) cells following 24 h treatment with lipopeptides. n.s., not significant; ^*adjusted P < 0.05, ^**adjusted P < 0.01, ^***adjusted P < 0.001. Data are shown as mean ± s.d. and individual data points. c Extracted transcriptional regulatory network from Signor database with 1-step neighbor constraints (enlarged for detail). Source data are provided as a Source Data file.

A. baumannii AB5075 [2] = assay: Transcriptomic analysis (RNA-Seq) of bacteria; type: cell-based, Acinetobacter baumannii; settings: for logFC (Differential gene expression for all genes), Geneid ABUW_RS00005 / logFC (Differential gene expression for all genes), Geneid ABUW_RS00020 / logFC (Fold change), gene ABUW_RS00010 / logFC (Fold change), gene ABUW_RS00030 / logFC (Fold change), gene ABUW_RS00035 / logFC (Fold change), gene recF (ABUW_RS00015) / 4h_1h logFC (Differential gene expression for all genes), Geneid ABUW_RS00005 / 4h_1h logFC (Differential gene expression for all genes), Geneid ABUW_RS00010 / 4h_1h logFC (Differential gene expression for all genes), Geneid ABUW_RS00015 / 4h_1h logFC (Differential gene expression for all genes), Geneid ABUW_RS00020: RNA-Seq A. baumannii AB5075; for log2FC, gene ABUW_RS01945 (acyl-CoA thioesterase II) / log2FC, gene ABUW_RS02545 (acyl-CoA thioesterase) / log2FC, gene ABUW_RS05045 (acyl-CoA thioesterase) / log2FC, gene ABUW_RS17575 (acyl-CoA thioesterase): pathway Fatty Acid and Lipid Degradation; for 4h_1h logFC (Differential gene expression for all genes), Geneid ABUW_RS00005 / 4h_1h logFC (Differential gene expression for all genes), Geneid ABUW_RS00010 / 4h_1h logFC (Differential gene expression for all genes), Geneid ABUW_RS00015 / 4h_1h logFC (Differential gene expression for all genes), Geneid ABUW_RS00020: 4h vs 1h
Procedure: Mid-log phase A. baumannii AB5075 (~10^8 CFU/mL) in CaMHB was treated with colistin (2 and 8 μg/mL), F287, F319 or F365 (equimolar concentration to colistin) for 1 and 4 h. Total RNA was extracted using TRIzol Reagent (Invitrogen, USA) and RNeasy Mini Kit (Qiagen, Germany). Quality check of RNA samples was conducted with NanoDrop (Thermo Fisher Scientific, USA) and Agilent 2100 Bioanalyzer (Agilent Technologies, USA) for sequencing (150 bp paired-end) at Genewiz (Shanghai, China). Raw reads were aligned to A. baumannii AB5075 genome (GCF_000963815, https://www.ncbi.nlm.nih.gov/assembly/GCF_000963815.1/) using subread-aligner (subread 2.0.1) and summarized by featureCounts (subread 2.0.1). Principal component analysis (PCA) was conducted with mixOmics 6.14.1 in R. Differentially expressed genes were determined using limma 3.46.0 with a combination of fold change ≥ 2 and false discovery rate (FDR, by Benjamini–Hochberg algorithm) adjusted P-value ≤ 0.05 (n = 3). Enrichment analysis of gene differential expression in AB5075 was conducted using BioCyc (A. baumannii AB5075, version 25.5). UpSetR 1.4.0, ComplexHeatmap 2.6.2 and circlize 0.4.13 were used for data visualization. Raw data were deposited in Short Reads Archive (SRA) database under accession numbers SRR15235669-SRR15235725.

[3] = system: MDR clinical isolates of Enterobacterales (n = 177, 152 carbapenem-resistant); assay: Extended MIC screening, MDR clinical isolates; type: cell-based
Procedure: MICs were determined in cation-adjusted Mueller–Hinton broth (CaMHB) by the broth micro-dilution method against ATCC strains and clinical isolates. MICs in the presence of Survanta® were determined as described above against P. aeruginosa ATCC 27853. In the 100 μL of fresh CaMHB containing polymyxins, 10% Survanta® (v/v, 2.5 mg/mL phospholipids) was added. MICs in the presence and absence of Survanta® were compared to determine the effect of binding to lung surfactant on the antibacterial activity of polymyxins.

## CCCCCCCC(=O)N[C@@H](CCN)C(=O)N[C@H](C(=O)N[C@@H](CN)C(=O)N[C@H]1CCNC(=O)[C@H]([C@@H](C)O)NC(=O)[C@H](CCN)NC(=O)[C@H](CCN)NC(=O)[C@H](CC)NC(=O)[C@@H](CC(C)C)NC(=O)[C@H](CCN)NC1=O)[C@@H](C)O [Lipopeptide F287] (HELM PEPTIDE1{[CCCCCCCC(=O)[*:2]].[Dab].T.[NC[C@H](N[*:1])C(=O)[*:2]].[Dab].[Dab].[dL].[Abu].[Dab].[Dab].T}$PEPTIDE1,PEPTIDE1,5:R3-11:R2$$$V2.0)
A. baumannii AB5075 [1]; time 0 h, passage 0, replicates rep1-rep4, raw OD600 (blank OD600 0.125333)
  OD600: 0.15 and 0.135 and 0.14
A. baumannii AB5075 [1]; time 12 h, passage 1, replicates rep1-rep4, raw OD600 (blank OD600 0.114667)
  OD600: 0.134 and 0.126 and 0.13 and 0.129
A. baumannii AB5075 [1]; time 24 h, passage 2, replicates rep1-rep4, raw OD600 (blank OD600 0.0956667)
  OD600: 0.091 and 0.089 and 0.086
A. baumannii AB5075 [1]; time 36 h, passage 3, replicates rep1-rep4, raw OD600 (blank OD600 0.088)
  OD600: 0.088 and 0.089 and 0.095
A. baumannii AB5075 [1]; time 48 h, passage 4, replicates rep1-rep4, raw OD600 (blank OD600 0.104667)
  OD600: 0.095 and 0.092 and 0.093 and 0.111
A. baumannii AB5075 [1]; time 60 h, passage 5, replicates rep1-rep4, raw OD600 (blank OD600 0.122333)
  OD600: 0.105 and 0.107 and 0.117
A. baumannii AB5075 [1]; time 72 h, passage 6, replicates rep1-rep4, raw OD600 (blank OD600 0.095)
  OD600: 0.097 and 0.09 and 0.087
A. baumannii AB5075 [1]; time 84 h, passage 7, replicates rep1-rep4, raw OD600 (blank OD600 0.091)
  OD600: 0.094 and 0.097 and 0.099 and 0.113
A. baumannii AB5075 [1]; time 96 h, passage 8, replicates rep1-rep4, raw OD600 (blank OD600 0.0953333)
  OD600: 0.111 and 0.113 and 0.11 and 0.117
A. baumannii AB5075 [1]; time 108 h, passage 9, replicates rep1-rep4, raw OD600 (blank OD600 0.100667)
  OD600: 0.115 and 0.107 and 0.116
A. baumannii AB5075 [1]; time 120 h, passage 10, replicates rep1-rep4, raw OD600 (blank OD600 0.0983333)
  OD600: 0.108 and 0.113 and 0.118
A. baumannii AB5075 [1]; time 132 h, passage 11, replicates rep1-rep4, raw OD600 (blank OD600 0.0843333)
  OD600: 0.121 and 0.108 and 0.118 and 0.122
A. baumannii AB5075 [1]; time 144 h, passage 12, replicates rep1-rep4, raw OD600 (blank OD600 0.091)
  OD600: 0.116 and 0.114 and 0.12
A. baumannii AB5075 [1]; time 156 h, passage 13, replicates rep1-rep4, raw OD600 (blank OD600 0.129)
  OD600: 0.118 and 0.12 and 0.113 and 0.116
A. baumannii AB5075 [1]; time 168 h, passage 14, replicates rep1-rep4, raw OD600 (blank OD600 0.101)
  OD600: 0.096 and 0.095 and 0.092 and 0.117
A. baumannii AB5075 [1]; 4× MIC, 7-day passaging
  time to emergence of resistance: ≤ 3 days
A. baumannii AB5075 [1]; 32× MIC
  growth over 7 days: No growth
In vitro; Rep1
  viability at 24 h: 52%
In vitro; Rep2
  viability at 24 h: 54.3%
In vitro; Rep4
  viability at 24 h: 47%
A. baumannii AB5075 [2]; H vs Cont, 1h
  logFC (Differential gene expression for all genes), Geneid ABUW_RS00005: -0.2237
  logFC (Differential gene expression for all genes), Geneid ABUW_RS00020: 0.4813
  logFC (Fold change), gene ABUW_RS00010: 0.6329
  logFC (Fold change), gene ABUW_RS00030: -0.7589
  logFC (Fold change), gene ABUW_RS00035: 1.171
  logFC (Fold change), gene recF (ABUW_RS00015): 0.0004857
  log2FC, gene ABUW_RS01945 (acyl-CoA thioesterase II): 0.3471
  log2FC, gene ABUW_RS02545 (acyl-CoA thioesterase): 1.413
  log2FC, gene ABUW_RS05045 (acyl-CoA thioesterase): 0.6077
  log2FC, gene ABUW_RS17575 (acyl-CoA thioesterase): -1.9504
A. baumannii AB5075 [2]; H vs Cont, 4h
  logFC (Differential gene expression for all genes), Geneid ABUW_RS00005: -0.2595
  logFC (Differential gene expression for all genes), Geneid ABUW_RS00020: 0.07692
  logFC (Fold change), gene ABUW_RS00010: 1.124
  logFC (Fold change), gene ABUW_RS00030: -1.151
  logFC (Fold change), gene ABUW_RS00035: 1.24
  logFC (Fold change), gene recF (ABUW_RS00015): -1.077
  log2FC, gene ABUW_RS01945 (acyl-CoA thioesterase II): -0.6425
  log2FC, gene ABUW_RS02545 (acyl-CoA thioesterase): 1.263
  log2FC, gene ABUW_RS05045 (acyl-CoA thioesterase): 0.8039
  log2FC, gene ABUW_RS17575 (acyl-CoA thioesterase): -1.276
A. baumannii AB5075 [2]; H
  4h_1h logFC (Differential gene expression for all genes), Geneid ABUW_RS00005: -0.6471
  4h_1h logFC (Differential gene expression for all genes), Geneid ABUW_RS00010: 0.4305
  4h_1h logFC (Differential gene expression for all genes), Geneid ABUW_RS00015: -1.349
  4h_1h logFC (Differential gene expression for all genes), Geneid ABUW_RS00020: 0.3991
A. baumannii AB5075 [2]; L vs Cont, 1h
  logFC (Differential gene expression for all genes), Geneid ABUW_RS00005: 0.09601
  logFC (Differential gene expression for all genes), Geneid ABUW_RS00020: 0.1731
  logFC (Fold change), gene ABUW_RS00010: 0.3235
  logFC (Fold change), gene ABUW_RS00030: -0.01757
  logFC (Fold change), gene ABUW_RS00035: 0.2853
  logFC (Fold change), gene recF (ABUW_RS00015): 0.06622
  log2FC, gene ABUW_RS01945 (acyl-CoA thioesterase II): 0.394
  log2FC, gene ABUW_RS02545 (acyl-CoA thioesterase): 0.4759
  log2FC, gene ABUW_RS05045 (acyl-CoA thioesterase): -0.04078
  log2FC, gene ABUW_RS17575 (acyl-CoA thioesterase): 0.9551
A. baumannii AB5075 [2]; L vs Cont, 4h
  logFC (Differential gene expression for all genes), Geneid ABUW_RS00005: 0.1326
  logFC (Differential gene expression for all genes), Geneid ABUW_RS00020: -0.2281
  logFC (Fold change), gene ABUW_RS00010: 0.09364
  logFC (Fold change), gene ABUW_RS00030: 0.3636
  logFC (Fold change), gene ABUW_RS00035: 0.2169
  logFC (Fold change), gene recF (ABUW_RS00015): 0.1608
  log2FC, gene ABUW_RS01945 (acyl-CoA thioesterase II): -0.1224
  log2FC, gene ABUW_RS02545 (acyl-CoA thioesterase): -0.4528
  log2FC, gene ABUW_RS05045 (acyl-CoA thioesterase): 0.3557
  log2FC, gene ABUW_RS17575 (acyl-CoA thioesterase): -0.4747
A. baumannii AB5075 [2]; L
  4h_1h logFC (Differential gene expression for all genes), Geneid ABUW_RS00005: -0.01752
  4h_1h logFC (Differential gene expression for all genes), Geneid ABUW_RS00010: -0.721
  4h_1h logFC (Differential gene expression for all genes), Geneid ABUW_RS00015: 0.1845
  4h_1h logFC (Differential gene expression for all genes), Geneid ABUW_RS00020: -0.0476
[3]; isolates with MIC 0.05 µg/mL
  Number of isolates: 0
[3]; isolates with MIC 0.125 µg/mL
  Number of isolates: 0
[3]; isolates with MIC 0.25 µg/mL
  Number of isolates: 17
[3]; isolates with MIC 0.5 µg/mL
  Number of isolates: 131
[3]; isolates with MIC 1 µg/mL
  Number of isolates: 5
[3]; isolates with MIC 2 µg/mL
  Number of isolates: 2
[3]; isolates with MIC 4 µg/mL
  Number of isolates: 1
[3]; isolates with MIC 8 µg/mL
  Number of isolates: 2
[3]; isolates with MIC 16 µg/mL
  Number of isolates: 5
[3]; isolates with MIC 32 µg/mL
  Number of isolates: 7
[3]; isolates with MIC 64 µg/mL
  Number of isolates: 3
[3]; isolates with MIC >64 µg/mL
  Number of isolates: 4
